Experimental data published in ChEMBL document CHEMBL1743201, “Casarett and Doull's Toxicology The Basic Science of Poisons, 7th edition” (2008).

What was measured:
Type in all cases: ADME
[1] = target: T1, Glutathione S-transferase Mu 2 (Homo sapiens, UniProt P28161); experiment: Substrates for human cytosolic glutathione transferase GSTM2
T1 sequence (P28161 whole entry): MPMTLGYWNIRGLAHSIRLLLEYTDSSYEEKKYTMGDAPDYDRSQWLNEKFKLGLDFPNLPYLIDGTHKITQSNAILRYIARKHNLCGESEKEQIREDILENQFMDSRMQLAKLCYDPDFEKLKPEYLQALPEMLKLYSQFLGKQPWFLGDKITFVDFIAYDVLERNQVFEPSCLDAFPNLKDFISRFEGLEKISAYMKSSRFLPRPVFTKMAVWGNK

[2] = target: Glutathione S-transferase Mu 3 (Homo sapiens, UniProt P21266); experiment: Substrates for human cytosolic glutathione transferase GSTM3
[3] = target: Hematopoietic prostaglandin D synthase (Homo sapiens, UniProt O60760); experiment: Substrates for human cytosolic glutathione transferase PGDS
Prostaglandin E synthase = Prostaglandin E synthase (Homo sapiens, UniProt O14684); experiment: Substrates for human microsomal glutathione transferase PTGEs
Leukotriene C4 synthase = Leukotriene C4 synthase (Homo sapiens, UniProt Q16873); experiment: Substrates for human microsomal glutathione transferase LTC4S
[4] = target: Microsomal glutathione S-transferase 2 (Homo sapiens, UniProt Q99735); experiment: Substrates for human microsomal glutathione transferase MGST2
[5] = target: Glutathione S-transferase 3, mitochondrial (Homo sapiens, UniProt O14880); experiment: Substrates for human microsomal glutathione transferase MGST3
[6] = target: T2, Nuclear receptor subfamily 1 group I member 3 (Homo sapiens, UniProt Q14994); experiment: (§1) Constitutive androstane receptor indirect activator
T2 sequence (Q14994 whole entry): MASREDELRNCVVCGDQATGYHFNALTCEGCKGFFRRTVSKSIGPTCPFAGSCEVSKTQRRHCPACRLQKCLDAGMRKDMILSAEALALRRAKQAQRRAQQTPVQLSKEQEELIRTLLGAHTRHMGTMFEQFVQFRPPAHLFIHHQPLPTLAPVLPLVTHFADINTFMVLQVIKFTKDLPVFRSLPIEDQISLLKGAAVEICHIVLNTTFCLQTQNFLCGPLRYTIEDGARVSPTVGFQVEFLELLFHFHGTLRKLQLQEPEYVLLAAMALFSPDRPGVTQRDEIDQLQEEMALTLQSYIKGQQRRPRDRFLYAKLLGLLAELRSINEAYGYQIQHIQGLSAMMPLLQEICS

[7] = target: T3, Nuclear receptor subfamily 1 group I member 3 (Mus musculus, UniProt O35627); experiment: as §1
T3 sequence (O35627 whole entry): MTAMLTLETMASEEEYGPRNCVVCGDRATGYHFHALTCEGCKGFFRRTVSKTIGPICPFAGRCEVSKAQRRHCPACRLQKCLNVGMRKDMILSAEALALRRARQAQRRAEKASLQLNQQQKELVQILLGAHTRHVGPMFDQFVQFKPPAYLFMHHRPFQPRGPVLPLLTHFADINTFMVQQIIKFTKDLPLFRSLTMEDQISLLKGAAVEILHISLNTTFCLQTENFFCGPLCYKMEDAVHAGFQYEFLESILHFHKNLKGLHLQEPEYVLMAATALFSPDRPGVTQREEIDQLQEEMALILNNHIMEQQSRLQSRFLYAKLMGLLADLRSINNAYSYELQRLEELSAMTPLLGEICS

Cytochrome P450 2B6 = target: T4, Cytochrome P450 2B6 (Homo sapiens, UniProt P20813); experiment: Clinically relevant inducers of human liver microsomal P450 enzymes, isoform CYP2B6; conditions: microsomes
T4 sequence (P20813 whole entry): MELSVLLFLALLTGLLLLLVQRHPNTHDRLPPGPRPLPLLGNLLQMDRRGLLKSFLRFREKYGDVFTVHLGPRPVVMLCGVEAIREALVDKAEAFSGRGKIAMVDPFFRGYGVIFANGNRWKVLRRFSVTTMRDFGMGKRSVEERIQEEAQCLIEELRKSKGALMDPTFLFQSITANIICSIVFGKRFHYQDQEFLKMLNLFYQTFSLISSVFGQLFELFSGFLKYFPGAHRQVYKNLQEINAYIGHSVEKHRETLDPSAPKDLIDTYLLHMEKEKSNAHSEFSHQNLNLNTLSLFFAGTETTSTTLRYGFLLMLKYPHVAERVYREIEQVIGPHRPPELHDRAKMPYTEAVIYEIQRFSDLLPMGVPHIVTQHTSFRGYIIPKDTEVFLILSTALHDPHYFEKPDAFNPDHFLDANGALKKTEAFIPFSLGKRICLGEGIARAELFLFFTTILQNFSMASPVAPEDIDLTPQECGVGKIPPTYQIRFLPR

Cytochrome P450 2C8 = target: T5, Cytochrome P450 2C8 (Homo sapiens, UniProt P10632); experiment: Clinically relevant inducers of human liver microsomal P450 enzymes, isoform CYP2C8; conditions: microsomes
T5 sequence (P10632 whole entry): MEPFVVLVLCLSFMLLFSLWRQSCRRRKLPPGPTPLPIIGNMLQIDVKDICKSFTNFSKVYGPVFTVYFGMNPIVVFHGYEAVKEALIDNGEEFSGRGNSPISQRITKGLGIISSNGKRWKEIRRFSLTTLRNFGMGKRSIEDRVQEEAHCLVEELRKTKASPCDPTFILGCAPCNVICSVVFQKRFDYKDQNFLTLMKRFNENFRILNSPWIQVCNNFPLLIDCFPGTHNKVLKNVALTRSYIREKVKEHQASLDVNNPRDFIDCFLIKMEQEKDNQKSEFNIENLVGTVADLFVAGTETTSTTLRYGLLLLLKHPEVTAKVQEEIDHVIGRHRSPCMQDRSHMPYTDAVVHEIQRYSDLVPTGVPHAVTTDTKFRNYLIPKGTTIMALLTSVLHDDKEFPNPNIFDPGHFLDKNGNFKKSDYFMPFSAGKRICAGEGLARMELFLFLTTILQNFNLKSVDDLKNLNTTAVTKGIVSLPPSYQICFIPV

Cytochrome P450 2C9 = Cytochrome P450 2C9 (Homo sapiens, UniProt P11712); experiment: Clinically relevant inducers of human liver microsomal P450 enzymes, isoform CYP2C9; conditions: microsomes
Cytochrome P450 2C19 = Cytochrome P450 2C19 (Homo sapiens, UniProt P33261); experiment: Clinically relevant inducers of human liver microsomal P450 enzymes, isoform CYP2C19; conditions: microsomes

Measured: Activity

Sequence of Hematopoietic prostaglandin D synthase (O60760 whole entry): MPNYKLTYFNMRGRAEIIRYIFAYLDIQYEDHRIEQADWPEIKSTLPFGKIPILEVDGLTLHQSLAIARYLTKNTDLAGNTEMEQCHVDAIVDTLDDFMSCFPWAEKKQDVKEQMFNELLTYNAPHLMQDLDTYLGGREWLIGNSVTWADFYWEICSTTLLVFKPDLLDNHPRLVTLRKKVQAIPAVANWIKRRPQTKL
Sequence of Glutathione S-transferase 3, mitochondrial (O14880 whole entry): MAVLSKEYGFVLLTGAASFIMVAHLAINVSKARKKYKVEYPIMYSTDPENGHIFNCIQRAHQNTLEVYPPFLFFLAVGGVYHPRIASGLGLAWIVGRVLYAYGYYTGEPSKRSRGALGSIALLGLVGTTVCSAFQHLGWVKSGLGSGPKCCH
Sequence of Cytochrome P450 2C19 (P33261 whole entry, canonical isoform): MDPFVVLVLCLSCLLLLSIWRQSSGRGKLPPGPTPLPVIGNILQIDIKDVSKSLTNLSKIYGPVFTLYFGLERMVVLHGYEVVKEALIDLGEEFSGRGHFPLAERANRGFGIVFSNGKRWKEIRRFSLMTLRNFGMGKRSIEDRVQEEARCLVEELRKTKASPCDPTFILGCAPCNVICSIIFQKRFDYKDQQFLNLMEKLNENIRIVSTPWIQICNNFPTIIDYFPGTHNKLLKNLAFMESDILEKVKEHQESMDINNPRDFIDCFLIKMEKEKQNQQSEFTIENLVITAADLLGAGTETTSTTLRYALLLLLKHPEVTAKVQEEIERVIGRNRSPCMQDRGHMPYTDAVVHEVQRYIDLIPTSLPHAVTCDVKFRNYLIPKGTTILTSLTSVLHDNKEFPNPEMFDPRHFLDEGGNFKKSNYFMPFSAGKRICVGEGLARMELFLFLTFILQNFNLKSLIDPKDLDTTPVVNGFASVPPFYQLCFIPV
Sequence of Microsomal glutathione S-transferase 2 (Q99735 whole entry): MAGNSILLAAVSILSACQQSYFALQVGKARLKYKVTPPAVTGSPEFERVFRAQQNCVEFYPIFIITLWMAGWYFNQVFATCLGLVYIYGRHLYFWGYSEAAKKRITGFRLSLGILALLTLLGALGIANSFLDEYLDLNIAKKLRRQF
Sequence of Glutathione S-transferase Mu 3 (P21266 whole entry): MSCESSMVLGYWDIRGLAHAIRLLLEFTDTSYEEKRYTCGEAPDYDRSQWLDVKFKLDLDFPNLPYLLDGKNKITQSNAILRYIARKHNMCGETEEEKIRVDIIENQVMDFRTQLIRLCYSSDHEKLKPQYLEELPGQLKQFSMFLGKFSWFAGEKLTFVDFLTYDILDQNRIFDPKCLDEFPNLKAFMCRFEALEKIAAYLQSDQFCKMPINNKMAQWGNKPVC
Sequence of Prostaglandin E synthase (O14684 whole entry): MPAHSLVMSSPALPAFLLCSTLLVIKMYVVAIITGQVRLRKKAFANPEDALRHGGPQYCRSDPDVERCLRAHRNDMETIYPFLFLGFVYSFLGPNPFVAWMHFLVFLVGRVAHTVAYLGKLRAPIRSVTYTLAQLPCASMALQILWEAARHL
Sequence of Leukotriene C4 synthase (Q16873 whole entry): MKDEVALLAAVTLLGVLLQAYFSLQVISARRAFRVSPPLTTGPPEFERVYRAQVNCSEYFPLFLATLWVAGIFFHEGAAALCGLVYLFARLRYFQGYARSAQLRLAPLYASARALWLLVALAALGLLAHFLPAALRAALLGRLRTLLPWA
Sequence of Cytochrome P450 2C9 (P11712 whole entry, canonical isoform): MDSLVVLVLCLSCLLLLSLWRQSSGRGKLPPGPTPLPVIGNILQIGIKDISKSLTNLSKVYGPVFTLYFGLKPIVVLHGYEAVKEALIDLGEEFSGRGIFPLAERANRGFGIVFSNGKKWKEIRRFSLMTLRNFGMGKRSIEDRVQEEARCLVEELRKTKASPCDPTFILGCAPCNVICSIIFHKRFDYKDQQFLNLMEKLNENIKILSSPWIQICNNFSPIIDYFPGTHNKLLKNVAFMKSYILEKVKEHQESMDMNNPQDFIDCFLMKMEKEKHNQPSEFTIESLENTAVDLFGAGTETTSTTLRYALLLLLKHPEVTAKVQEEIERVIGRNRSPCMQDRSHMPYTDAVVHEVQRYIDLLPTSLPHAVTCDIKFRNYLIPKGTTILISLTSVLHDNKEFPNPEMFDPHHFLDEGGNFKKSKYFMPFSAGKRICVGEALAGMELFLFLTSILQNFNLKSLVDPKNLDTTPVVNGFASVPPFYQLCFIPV

CCCCC[C@H](O)/C=C/[C@H]1C2CC(OO2)[C@@H]1C/C=C\CCCC(=O)O (stereo partly drawn)
Substrate: [1] | [2] | [3] | Prostaglandin E synthase

CCCCC/C=C\C\C=C/C=C/C=C/[C@@H]1O[C@H]1CCCC(=O)O [LEUKOTRIENE A4]
Substrate: Leukotriene C4 synthase | [4] | [5]

CCC1(c2ccccc2)C(=O)NC(=O)NC1=O [PHENOBARBITAL]
indirect activator: [6] | [7]
Inducer: Cytochrome P450 2B6 | Cytochrome P450 2C8 | Cytochrome P450 2C9 | Cytochrome P450 2C19
